Test results as given in PMC11460631, “Inhibition of transient receptor potential vanilloid 3 channels by antimalarial hydroxychloroquine alleviates TRPV3-dependent dermatitis” (The Journal of Biological Chemistry, 2024).
Where two headings read alike, the source gives them in different places.

Tests used:
mTRPV4 = target: T1, mTRPV4 (Mus musculus, UniProt Q9EPK8); assay: Whole-cell current recordings, mTRPV4; assay type: cell-based, murine; conditions: 100 μM HCQ; current activated by 1 μM GSK1016790A
T1 construct: YFP or GFP; expressed in transfected cells; host or cells: HEK293T
T1 sequence (Q9EPK8 whole entry): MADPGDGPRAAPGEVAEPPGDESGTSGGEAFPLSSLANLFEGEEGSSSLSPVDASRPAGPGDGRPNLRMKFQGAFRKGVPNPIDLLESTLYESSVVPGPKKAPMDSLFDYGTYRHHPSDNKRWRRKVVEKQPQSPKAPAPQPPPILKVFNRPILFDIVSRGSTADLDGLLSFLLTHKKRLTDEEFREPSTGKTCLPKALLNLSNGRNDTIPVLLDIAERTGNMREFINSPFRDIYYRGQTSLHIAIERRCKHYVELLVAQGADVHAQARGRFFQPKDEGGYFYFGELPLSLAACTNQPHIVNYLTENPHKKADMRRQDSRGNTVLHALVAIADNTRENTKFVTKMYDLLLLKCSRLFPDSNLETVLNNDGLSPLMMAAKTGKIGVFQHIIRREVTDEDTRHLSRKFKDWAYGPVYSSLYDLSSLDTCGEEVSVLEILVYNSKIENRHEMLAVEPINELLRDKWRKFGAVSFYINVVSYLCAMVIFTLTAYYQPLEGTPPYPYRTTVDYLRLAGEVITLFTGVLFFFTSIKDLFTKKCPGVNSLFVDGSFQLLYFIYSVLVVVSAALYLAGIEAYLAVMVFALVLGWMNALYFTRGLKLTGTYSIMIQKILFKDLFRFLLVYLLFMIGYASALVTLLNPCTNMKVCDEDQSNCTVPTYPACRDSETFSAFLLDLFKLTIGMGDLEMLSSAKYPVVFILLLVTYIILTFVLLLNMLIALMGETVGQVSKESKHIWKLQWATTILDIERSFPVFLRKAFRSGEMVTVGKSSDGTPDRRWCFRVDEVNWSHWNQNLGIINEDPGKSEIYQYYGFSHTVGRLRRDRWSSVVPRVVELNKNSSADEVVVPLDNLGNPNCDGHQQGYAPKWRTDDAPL
Method: (§1) To elucidate the specificity of HCQ inhibition on TRPV3, we conducted whole-cell current recordings on other known pruritus-related TRP channels, such as hTRPA1, mTRPV1, mTRPV4, and mTRPM8 (Fig. 3, A and F). […] Because of the relatively larger inhibition of HCQ on mTRPM8 current, we tested the concentration dependence of HCQ on mTRPM8 channels.
(§2) HEK293T cells are cultured using Dulbecco's modified Eagle's medium containing 10% fetal bovine serum and 1% penicillin-streptomycin in a cell incubator with 5% CO2 at 37 °C. Plasmids of murine TRPV1, TRPV4, TRPM8, and human TRPV3, TRPA1 are labeled with YFP or GFP as indicators for subsequent electrophysiological recordings. Complementary DNA constructs of ion channels were transiently transfected with Lipofectamine 3000 (Invitrogen). And 12 to 18 h after transient transfection, electrophysiological recordings were performed.
Patch-clamp recordings were carried out with a HEKA EPC10 amplifier controlled by PatchMaster software (HEKA; https://www.heka.com/products/products_main.html#soft_pm) ([36]). Patch pipettes were prepared from borosilicate glass and fire-polished to the resistance of 3 to 8 MΩ by P-97 puller for whole-cell recordings. For single-channel recordings, patch pipettes were fire-polished to a higher resistance of 6 to 10 MΩ. […]

mTRPM8 = target: T2, mTRPM8 (Mus musculus, UniProt Q8R4D5); assay: Whole-cell current recordings, mTRPM8; assay type: cell-based, murine
T2 construct: YFP or GFP; expressed in transfected cells; host or cells: HEK293T
T2 sequence (Q8R4D5 whole entry): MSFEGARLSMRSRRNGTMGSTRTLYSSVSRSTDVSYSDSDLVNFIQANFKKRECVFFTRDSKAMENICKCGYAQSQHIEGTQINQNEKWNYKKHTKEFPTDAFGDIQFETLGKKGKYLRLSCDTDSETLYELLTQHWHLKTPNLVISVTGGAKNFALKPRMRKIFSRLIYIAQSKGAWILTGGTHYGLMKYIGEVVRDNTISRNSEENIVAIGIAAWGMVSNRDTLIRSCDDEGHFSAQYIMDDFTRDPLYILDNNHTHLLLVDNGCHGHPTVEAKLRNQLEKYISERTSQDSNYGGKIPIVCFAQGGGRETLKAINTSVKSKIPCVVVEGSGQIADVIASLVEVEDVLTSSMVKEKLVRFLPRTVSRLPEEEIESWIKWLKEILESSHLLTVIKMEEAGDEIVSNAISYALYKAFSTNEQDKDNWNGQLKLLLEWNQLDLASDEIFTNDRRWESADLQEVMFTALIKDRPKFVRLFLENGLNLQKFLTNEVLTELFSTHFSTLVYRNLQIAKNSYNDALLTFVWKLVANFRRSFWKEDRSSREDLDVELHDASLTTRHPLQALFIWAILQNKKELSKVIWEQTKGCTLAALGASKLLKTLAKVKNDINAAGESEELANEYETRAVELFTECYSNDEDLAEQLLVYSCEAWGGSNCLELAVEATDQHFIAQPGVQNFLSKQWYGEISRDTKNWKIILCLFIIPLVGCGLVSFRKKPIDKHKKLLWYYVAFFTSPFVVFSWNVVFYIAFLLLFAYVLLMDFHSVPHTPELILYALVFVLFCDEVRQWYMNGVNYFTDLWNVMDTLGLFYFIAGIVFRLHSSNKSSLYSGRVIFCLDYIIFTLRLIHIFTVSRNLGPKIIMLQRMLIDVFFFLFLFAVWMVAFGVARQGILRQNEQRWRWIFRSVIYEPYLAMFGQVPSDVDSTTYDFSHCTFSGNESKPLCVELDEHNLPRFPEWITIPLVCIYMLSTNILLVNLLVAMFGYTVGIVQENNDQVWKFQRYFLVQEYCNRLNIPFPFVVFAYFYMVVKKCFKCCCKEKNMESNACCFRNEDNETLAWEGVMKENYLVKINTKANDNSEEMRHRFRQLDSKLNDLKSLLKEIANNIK
Method: as §1, §2
Patch-clamp recordings were carried out with a HEKA EPC10 amplifier controlled by PatchMaster software (HEKA; https://www.heka.com/products/products_main.html#soft_pm) ([36]). Patch pipettes were prepared from borosilicate glass and fire-polished to the resistance of 3 to 8 MΩ by P-97 puller for whole-cell recordings. For single-channel recordings, patch pipettes were fire-polished to a higher resistance of 6 to 10 MΩ. Both bath solution and pipette solution contained 130 mM NaCl, 10 mM glucose, 0.2 mM EDTA, and 3 mM Hepes and were adjusted to pH 7.2 to 7.4 with NaOH. Whole-cell recordings and single-channel recordings were performed at ± 80 mV. The current was sampled at 10 kHz and filtered at 2.9 kHz. All recordings were performed at room temperature (25 °C). A gravity-driven system (RSC-200, Bio-Logic) with freely rotated perfusion tubes was used for the perfusion of ligands. Bath and ligand solutions were delivered through separate tubes to minimize the mixing of solutions. […]
All data from whole-cell recordings were analyzed in Igor Pro (WaveMetrics). IC50 values were determined by fitting the Hill equation to concentration-response relationships. […]

TRPV3 = target: T3, TRPV3 (Homo sapiens, UniProt Q8NET8); assay: Whole-cell patch-clamp recordings of TRPV3 currents in transfected HEK293T cells; assay type: cell-based; conditions: for IC50: ± 80 mV
T3 construct: YFP or GFP; expressed in transfected cells; host or cells: HEK293T
T3 sequence (Q8NET8 1-790): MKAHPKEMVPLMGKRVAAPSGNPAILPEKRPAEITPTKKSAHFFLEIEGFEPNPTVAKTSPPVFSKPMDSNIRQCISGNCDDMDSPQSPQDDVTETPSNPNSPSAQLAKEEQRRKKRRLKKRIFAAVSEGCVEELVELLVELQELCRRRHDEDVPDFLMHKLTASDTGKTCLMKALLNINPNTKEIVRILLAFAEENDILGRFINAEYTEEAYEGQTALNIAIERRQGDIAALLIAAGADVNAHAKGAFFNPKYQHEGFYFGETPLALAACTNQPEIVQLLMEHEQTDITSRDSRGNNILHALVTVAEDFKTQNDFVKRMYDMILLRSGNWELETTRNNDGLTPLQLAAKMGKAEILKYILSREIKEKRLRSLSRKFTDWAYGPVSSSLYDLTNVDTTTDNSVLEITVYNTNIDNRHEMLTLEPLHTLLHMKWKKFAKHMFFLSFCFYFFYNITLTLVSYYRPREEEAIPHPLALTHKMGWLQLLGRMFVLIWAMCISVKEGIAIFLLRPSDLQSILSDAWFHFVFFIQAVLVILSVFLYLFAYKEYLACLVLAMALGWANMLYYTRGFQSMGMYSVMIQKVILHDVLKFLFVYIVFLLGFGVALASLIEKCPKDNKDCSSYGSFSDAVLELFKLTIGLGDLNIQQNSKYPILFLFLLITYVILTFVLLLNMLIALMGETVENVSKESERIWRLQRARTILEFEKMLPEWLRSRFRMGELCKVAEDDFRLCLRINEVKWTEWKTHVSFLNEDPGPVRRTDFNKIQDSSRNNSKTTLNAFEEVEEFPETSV
Method: as §2
Patch-clamp recordings were carried out with a HEKA EPC10 amplifier controlled by PatchMaster software (HEKA; https://www.heka.com/products/products_main.html#soft_pm) ([36]). Patch pipettes were prepared from borosilicate glass and fire-polished to the resistance of 3 to 8 MΩ by P-97 puller for whole-cell recordings. For single-channel recordings, patch pipettes were fire-polished to a higher resistance of 6 to 10 MΩ. Both bath solution and pipette solution contained 130 mM NaCl, 10 mM glucose, 0.2 mM EDTA, and 3 mM Hepes and were adjusted to pH 7.2 to 7.4 with NaOH. Whole-cell recordings and single-channel recordings were performed at ± 80 mV. The current was sampled at 10 kHz and filtered at 2.9 kHz. All recordings were performed at room temperature (25 °C). A gravity-driven system (RSC-200, Bio-Logic) with freely rotated perfusion tubes was used for the perfusion of ligands. Bath and ligand solutions were delivered through separate tubes to minimize the mixing of solutions. Patch pipette holding cells were placed in front of the perfusion tube outlet for perfusion.
All data from whole-cell recordings were analyzed in Igor Pro (WaveMetrics). IC50 values were determined by fitting the Hill equation to concentration-response relationships. Data are shown as mean ± SEM. Statistical significance between two groups was conducted with an unpaired two-tailed t test, and statistical significance among multiple groups was conducted with one-way ANOVA using Dunnett’s multiple comparisons test or Tukey's post hoc test. Differences were regarded as statistically significant with ∗, p < 0.05; ∗∗, p < 0.01; ∗∗∗, p < 0.001; ∗∗∗∗, and p < 0.0001; N.S., no significance.

Q: What does the source list for CCN(CCO)CCCC(C)Nc1ccnc2cc(Cl)ccc12 (stereo not shown) [HCQ, hydroxychloroquine]?
A: reduction of mTRPV4 current (mTRPV4): 18.37% ± 11.21%; reduction of mTRPM8 current (mTRPM8; 100 μM HCQ, current activated by 1 mM menthol): 27.94% ± 10.91%; IC50 (mTRPM8; concentration dependence, whole-cell, read-out: IC50 on mTRPM8 channels): 263 ± 88.6 µM; IC50 of mTRPM8 relative to IC50 of hTRPV3 (mTRPM8; selectivity ratio): more than 5 fold; IC50 (TRPV3; HEK293T cells expressing TRPV3, whole-cell, 1 mM 2-APB, read-out: IC50, inhibition of TRPV3 currents induced by 1 mM 2-APB): 51.7 ± 4.78 µM; inhibition at 100 µM (TRPV3; HEK-293T, 100 μM HCQ, 1 mM 2-APB, read-out: inhibition of WT TRPV3 channels): 75.6%; IC50 (TRPV3; whole-cell, 1 mM carvacrol, read-out: IC50, inhibition of TRPV3 current induced by carvacrol): 1.07 ± 0.38 µM
